Measurements as given in US20140037604A1, “NUTRITIONAL COMPOSITIONS COMPRISING ALPHA-HYDROXYISOCAPROIC ACID” (NESTEC S.A., priority 2011, published 2014).
“Also recorded” adds a separate entry of the source. Read-outs that look alike come from different tables or passages of the source.

Experiments:
[1] = test system: intestinal mammalian target of rapamycin (mTOR); details: piglet stressed with LPS; cited from earlier work
[2] = test system: gastrocnemius of hindlimb-immobilized rats; assay: Muscle atrophy and recovery after unilateral hindlimb immobilization (gastrocnemius weight); format: in vivo, male Wistar rats; details: for Muscle regrowth (gastrocnemius mass) 7 days after removal of the cast: 7 days immobilization + 7 days recovery, compared to control diet; for Decrease in gastrocnemius mass by immobilization: 7 days of cast immobilization, versus contralateral uncasted limb; for Mass of previously immobilized gastrocnemius compared to contralateral uncasted muscle: recovery day 14
Text: (§1) Water was provided ad libitum.

[3] = test system: protein synthesis in gastrocnemius, liver and heart; assay: In vivo rate of tissue protein synthesis, flooding-dose technique with [3H]-L-phenylalanine; set-up: species or system male Wistar rats; details: for In-vivo-determined tissue protein synthesis: Liver / In-vivo-determined tissue protein synthesis: Heart: freely fed rats; for In-vivo-determined tissue protein synthesis: Heart: no unit in table (text b163: nmol Phe/h/mg protein); for Immobilization (casting)-induced decrease in muscle protein synthesis: gastrocnemius, 7 days of immobilization
Method: as §1
The in vivo rate of protein synthesis in gastrocnemius, liver and heart (ventricle only) was determined using the flooding-dose technique, exactly as described (Vary T C and Lang C H, Assessing effects of alcohol consumption on protein synthesis in striated muscles. Methods Mol Biol 447: 343-355, 2008). A P-50 catheter was placed in the left carotid artery for the withdrawal of blood. Rats were injected intravenously (IV) with [^3H]-L-phenylalanine (Phe; 150 mM, 30 μCi/ml; 1 ml/100 g body weight) and blood was collected 15 min later for determining the plasma Phe concentration and radioactivity. Thereafter, tissues were rapidly excised and a portion freeze-clamped and then stored at −70° C. The rate of protein synthesis was calculated by dividing the amount of radioactivity incorporated into protein by the plasma Phe specific radioactivity. The specific radioactivity of the plasma Phe was measured by high performance liquid chromatography (HPLC) analysis of supernatant from trichloroacetic acid (TCA) extracts of plasma. In addition, samples of fresh muscle were homogenized for Western blot and analysis of selected proteins and another piece of tissue used for qRT-PCR, as described below.

Hematological profile = format: in vivo, male Wistar rats; details: means ± SEM; for Hematocrit / Hemoglobin / Lymphocytes / MCH / MCV / Neutrophils / Platelets / RBC / WBC: blood; for Protime (prothrombin time): citrated blood
Method: (§2) Blood was collected from the arterial catheter while rats were anesthetized and prior to injection of [^3H]-Phe. Blood was dispensed to determine standard hematological and biochemical endpoints. For hematology analyses, 250-500 μl of blood was dispensed to tubes containing EDTA (BD No. 365974; Fisher Scientific). Hematology analyses (Heska CBC-Diff Hematology Analyzer, Loveland, Colo.) included: red and white blood cell counts, hematocrit, hemoglobin, platelets, and differential leukocyte counts. Reticulocytes were counted manually using methylene blue stain. In addition, 900 μl blood was dispensed to a tube containing 100 μl of 0.109 M sodium citrate (BD Medical No. 363083; Fisher Scientific) for measurement of prothrombin time (BBL Fibrometer System, Cockeysville, Md.). The remaining blood was dispensed to a silicone-coated collection tube (BD No. 366381; Fisher Scientific) and allowed to clot. Clotted blood samples were centrifuged in a Beckman Coulter Allegra X-12R centrifuge at 3500 rpm for 5 min at 4° C., and the serum was collected and stored. Biochemical analyses on serum was performed on a Cobas Mira Plus Chemistry Analyzer (Diamond Diagnostics, Holliston, Mass.) and included: total bilirubin, glucose, aspartate aminotransferase, alanine aminotransferase, lactate dehydrogenase, albumin, calcium, creatinine, urea, phosphate, total cholesterol, chloride, and total protein. Serum sodium and potassium were analyzed by flame photometer (IL940; Instrumentation Laboratory, Lexington, Mass.). Triglycerides and free fatty acids (FFAs) were determined colorimetrically (Abcam, Cambridge, Mass.; Wako Diagnostics, Richmond, Va., respectively). Insulin was determined by ELISA (Alpco diagnostics, Salem, N.H.). The homeostatic model assessment of insulin resistance (HOMA-IR) was calculated to provide an estimate of whole-body insulin resistance (Turner R C, Holman R R, Matthews D, Hockaday T D and Peto J. Insulin deficiency and insulin resistance interaction in diabetes: estimation of their relative contribution by feedback analysis from basal plasma insulin and glucose concentrations. Metabolism 28: 1086-1096,1979).

[4] = rat, in vivo
Text: (§3) Animal protocols. The experiments described herein were broadly organized into two experimental series. Both studies used male Wistar rats (Charles River Breeding Laboratories, Cambridge, Mass.) which acclimated for 1 week in a controlled environment. Rats were shipped at 350-375 g and were approximately 12 wks of age. Water and standard rat chow were provide ad libitum.
(§4) The following custom diets were commercially prepared (Dytes, Bethlehem, Pa.): control diet (AIN93M), or isocaloric, isonitrogenous diets supplemented with α-hydroxy-isocaproic acid (HICA) or leucine (Leu) (Table 1). […] Therefore, animals were provided the dietary intervention for a period of 6 days prior to hindlimb immobilization.
(§5) The foot was positioned in plantar-flexion to induce maximal atrophy of the gastrocnemius and rats received 10 ml of 0.9% warmed (37° C.) sterile saline for resuscitation. […] Consequently, the contralateral limb served as the control in all subsequent experiments. After casting, rats were housed individually and were continued to be pair-fed for a period of 7 days. Water was provided ad libitum. On day 7 after casting, rats were anesthetized with pentobarbital and the cast atraumatically and rapidly (<2 min) removed (Stryker Instruments, Kalamzoo, Mich.).

[5] = Blood chemistry profile, metabolic substrates and hormone (serum); format: in vivo, male Wistar rats; details: for Insulin: ELISA; for Insulin / HOMA-IR (homeostatic model assessment of insulin resistance) / Triglycerides / ALT / AST / Albumin / BUN / Bilirubin, total / Calcium / Chloride / Cholesterol / Creatinine / Glucose / LDH / Phosphorous / Potassium / Protein, total / Sodium: means ± SEM; for HOMA-IR (homeostatic model assessment of insulin resistance): calculated from insulin and glucose; for ALT / AST / Albumin / BUN / Bilirubin, total / Calcium / Chloride / Cholesterol / Creatinine / Glucose / LDH / Phosphorous / Potassium / Protein, total / Sodium: serum; for Sodium: all studies combined
Method: as §2

[6] = Organ weights of rats fed supplemented diets
Text: as §3, §4, §5

[7] = means ± SEM, all studies combined, no unit in table
[8] = means ± SEM, all studies combined
[9] = supplemented diet, means ± SEM, all studies combined

SMILES: O=C(O)CCC(=O)C(=O)O [AKG, α-ketoglutarate]
- Crypt depth [1]: reduced crypt depth
- Phosphorylation of intestinal mTOR [1]: increased phosphorylation
- Villous height [1]: increased villous height

SMILES: CC(C)C[C@H](N)C(=O)O [Leucine, leucine]
- Muscle regrowth (gastrocnemius mass) 7 days after removal of the cast [2]: not altered
- Decrease in gastrocnemius mass by immobilization [2]: 0.57 ± 0.08 g
- Mass of previously immobilized gastrocnemius compared to contralateral uncasted muscle ([2]; listed as Leu): a reduction in mass of the previously immobilized muscle was still detected; also recorded: partial recovery of gastrocnemius mass
- Protein synthesis in the previously immobilized muscle compared to contralateral uncasted muscle ([3]; day 14 of recovery, listed as Leu): not different from the uncasted muscle; also recorded: returned to basal values
- In-vivo-determined tissue protein synthesis: Liver [3, 7]: 22.51 ± 0.88
- In-vivo-determined tissue protein synthesis: Heart [3, 8]: 2.93 ± 0.11
- Immobilization (casting)-induced decrease in muscle protein synthesis ([3]; listed as Leu): decreased protein synthesis to the same extent; also recorded: failed to prevent the casting-induced decrease in protein synthesis
- Protein synthesis in the uncasted muscle compared to control-fed rats ([3]; uncasted gastrocnemius): did not differ
- Hematocrit (Hematological profile): 41 ± 1%
- Hemoglobin (Hematological profile): 15.7 ± 0.3 g/dL
- Lymphocytes (Hematological profile): 73 ± 3%
- MCH (Hematological profile): 17.9 ± 0.2 pg
- MCV (Hematological profile): 47 ± 1 fL
- Neutrophils (Hematological profile): 23 ± 3%
- Platelets (Hematological profile): 1206 ± 56 103/μl
- RBC (Hematological profile): 8.98 ± 0.28 106/μl
- WBC (Hematological profile): 2.7 ± 0.2 103/μl
- Protime (prothrombin time) (Hematological profile): 18 ± 1 s
- Kidney weight compared between diets [4]: did not differ
- Insulin [5]: 3.64 ± 0.32 c ng/ml
- HOMA-IR (homeostatic model assessment of insulin resistance) [5]: 47.7 ± 4.6b
- Triglycerides [5]: 667 ± 52 µmol/L
- HOMA-IR compared to control rats or those fed a HICA-containing diet ([5]; rat, in vivo): significantly greater
- Markers of renal function (creatinine and BUN) compared to control values ([5]; rat, in vivo): generally unaffected
- Serum phosphorus concentration, elevation compared to control values ([5]; rat, in vivo): 18%
- Serum potassium concentration compared to control- or HICA-fed rats ([5]; rat, in vivo): lower
- ALT [5]: 24 ± 1 U/L
- AST [5]: 68 ± 4 U/L
- Albumin [5]: 3.42 ± 0.03 g/dL
- BUN [5]: 16.2 ± 0.5a mg/dL
- Bilirubin, total [5]: 0.3 ± 0.02 mg/dL
- Calcium [5]: 9.6 ± 0.1 mg/dL
- Chloride [5]: 100 ± 1 mmol/L
- Cholesterol [5]: 63 ± 4 mg/dL
- Creatinine [5]: 0.3 ± 0.01 mg/dL
- Glucose [5]: 214 ± 8 mg/dL
- LDH [5]: 169 ± 21 U/L
- Phosphorous [5]: 7.0 ± 0.2b mg/dL
- Potassium [5]: 4.1 ± 0.1b mmol/L
- Protein, total [5]: 5.0 ± 0.1 g/dL
- Sodium [5]: 140 ± 1 mmol/L

SMILES: CC(C)CC(O)C(=O)O (stereo not drawn) [HICA, α-hydroxy-isocaproic acid]
- Muscle regrowth (gastrocnemius mass) 7 days after removal of the cast [2]: not altered
- Decrease in gastrocnemius mass by immobilization [2]: 0.61 ± 0.09 g
- Mass of previously immobilized gastrocnemius compared to contralateral uncasted muscle [2]: did not differ; also recorded: complete recovery of mass
- Prevention or amelioration of the reduction in muscle mass produced by disuse ([2]; unilateral hindlimb immobilization): failed to prevent or ameliorate the accompanying reduction in muscle mass
- Increment in protein synthesis in the previously immobilized muscle ([3]; after a 7-day recovery period, not statistically significant versus control-fed rats): 0.77±0.17 nmol Phe/h/mg protein
- Protein synthesis in the previously immobilized muscle compared to contralateral uncasted muscle ([3]; day 14 of recovery): still increased
- Increment in muscle protein synthesis compared to other groups ([3]; day 14 of recovery, failed to achieve statistical significance): tended to be increased
- In-vivo-determined tissue protein synthesis: Liver [3, 7]: 24.41 ± 0.90
- In-vivo-determined tissue protein synthesis: Heart [3, 8]: 2.76 ± 0.11
- Immobilization (casting)-induced decrease in muscle protein synthesis [3]: no immobilization-induced decrease
- Immobilization (casting)-induced decrease in muscle protein synthesis ([3]; listed as αHICA): prevented the casting-induced decrease in muscle protein synthesis
- In-vivo-determined tissue protein synthesis: GAstrocnemius (control) ([3]; uncasted control muscle, means ± SEM, all studies combined, no unit in table): 1.26 ± 0.04
- Basal rate of protein synthesis in uncasted muscle, lower than control-fed rats ([3]; uncasted gastrocnemius): 10%
- Hematocrit (Hematological profile): 40 ± 1%
- Hemoglobin (Hematological profile): 15.2 ± 0.5 g/dL
- Lymphocytes (Hematological profile): 70 ± 2%
- MCH (Hematological profile): 17.9 ± 0.1 pg
- MCV (Hematological profile): 47 ± 1 fL
- Neutrophils (Hematological profile): 24 ± 2%
- Platelets (Hematological profile): 1207 ± 60 103/μl
- RBC (Hematological profile): 8.49 ± 0.31 106/μl
- WBC (Hematological profile): 2.5 ± 0.2 103/μl
- Protime (prothrombin time) (Hematological profile): 19 ± 1 s
- Organ weight: Liver ([6]; diet with α-HICA 50.4 g/kg or leucine 50 g/kg, means ± SEM, data combined from all studies): 12.00 ± 0.35 g
- Kidney weight compared between diets ([6]; rat, in vivo): did not differ
- Organ weight: Adrenal [6, 9]: 403 ± 16 mg
- Organ weight: Kidney [6, 9]: 1.22 ± 0.03 g
- Organ weight: Spleen [6, 9]: 960 ± 37 mg
- Organ weight: Testes [6, 9]: 1.82 ± 0.03 g
- Organ weight: Heart ([6]; ventricle only, supplemented diet, means ± SEM, all studies combined): 1.13 ± 0.02 g
- Insulin [5]: 1.90 ± 0.15 a ng/ml
- HOMA-IR (homeostatic model assessment of insulin resistance) [5]: 27.1 ± 3.2 a
- Triglycerides [5]: 609 ± 51 µmol/L
- Markers of renal function (creatinine and BUN) compared to control values ([5]; rat, in vivo): generally unaffected
- Serum insulin concentration compared to control rats ([5]; rat, in vivo): did not differ
- ALT [5]: 24 ± 1 U/L
- AST [5]: 74 ± 4 U/L
- Albumin [5]: 3.31 ± 0.04 g/dL
- BUN [5]: 16.2 ± 0.6a mg/dL
- Bilirubin, total [5]: 0.5 ± 0.04 mg/dL
- Calcium [5]: 9.5 ± 0.1 mg/dL
- Chloride [5]: 101 ± 1 mmol/L
- Cholesterol [5]: 62 ± 3 mg/dL
- Creatinine [5]: 0.3 ± 0.02 mg/dL
- Glucose [5]: 223 ± 11 mg/dL
- LDH [5]: 232 ± 23 U/L
- Phosphorous [5]: 5.8 ± 0.2a mg/dL
- Potassium [5]: 4.9 ± 0.1a mmol/L
- Protein, total [5]: 5.0 ± 0.1 g/dL
- Sodium [5]: 141 ± 1 mmol/L
- Deleterious effects on whole-body and tissue-specific metabolic and hematological parameters ([5]; supplementation for up to 3 wks): no apparent deleterious effects
